Each structure is given as a SMILES string. Activity calls are given as the source filed them. No cut-off for these calls is given here.

What is called IC50 is the concentration that gives 50% inhibition. Broadly, the Ki is the equilibrium dissociation constant of an inhibitor or competing ligand from its target.

Test system in one experiment: not listed separately
The experiment can be described thus: (§1) Inhibition of yeast recombinant FTase. Also on record: species or system Saccharomyces cerevisiae.
Settings: not given
`CON(C)C(=O)c1sc(SC(C)C)c(C#N)c1-c1ccc(Cl)cc1`: the IC50 result is recorded as “Not Active”. For `CC(C)Sc1sc(CO)c(-c2ccc(Cl)cc2)c1C#N`, the IC50 result was “Not Active”. Same read-out and setting: under `CC(C)Sc1scc(-c2ccc(Cl)cc2)c1C#N` stands “Not Active”.

The experiment is the same for the next values; noted with them: read-out: IC50.
As for `CC(=O)c1sc(SC(C)C)c(C#N)c1-c1ccc(Cl)cc1`, the IC50 is 790 nM.

`CSc1sc(C(=O)O)c(-c2ccc(Cl)cc2)c1C#N`: the IC50 stood at 610 nM. On the same count and under the same terms, under `CC(=O)OCc1sc(SC(C)C)c(C#N)c1-c1ccc(Cl)cc1` stands 45000 nM; under `CCOC(=O)c1sc(SC(C)C)c(C#N)c1-c1ccc(Cl)cc1`, 3800 nM. On the same count and under the same terms, under `CCC(C)Sc1sc(C(=O)O)c(-c2ccc(Cl)cc2)c1C#N` (stereo unspecified) stands 345 nM; under `CC(C)Sc1sc(C(N)=O)c(-c2ccc(Cl)cc2)c1C#N`, 1100 nM; under `CSc1sc(C(=O)NC2CC2)c(-c2ccc(Cl)cc2)c1C#N`, 22000 nM. As to `N#Cc1c(N2CCOCC2)sc(C(=O)O)c1-c1ccc(Cl)cc1`, the IC50 was determined as 28000 nM.

On to `CCSc1sc(C(=O)O)c(-c2ccc(Cl)cc2)c1C#N`, for which the IC50 was determined as 325 nM. The same measure, in the same setting: under `CC(C)Sc1sc(C(=O)O)c(-c2ccc(Cl)cc2)c1C#N` stands 110 nM; under `CC(C)Sc1oc(C(=O)O)c(-c2ccc(Cl)cc2)c1C#N`, 2000 nM. For the compound `CC(C)Sc1c(C#N)c(-c2ccc(Cl)cc2)c(C(=O)O)n1C`, the IC50 was determined as 47000 nM. In the case of `CC(C)CSc1sc(C(=O)O)c(-c2ccc(Cl)cc2)c1C#N`, the IC50 was determined as 890 nM.

`CC(C)Sc1nc(-c2ccc(Cl)cc2)c(C(=O)O)s1`: the IC50 is 51000 nM. Turning to `CSCC[C@@H](NC(=O)c1sc(SC(C)C)c(C#N)c1-c1ccc(Cl)cc1)C(=O)O`, the IC50 came to 7.5 nM. Take `CCCCSc1sc(C(=O)O)c(-c2ccc(Cl)cc2)c1C#N`: the half-inhibitory concentration (IC50) worked out at 1240 nM. As for `N#Cc1c(SC2CCCCC2)sc(C(=O)O)c1-c1ccc(Cl)cc1`, the IC50 worked out at 1450 nM. `COC(=O)[C@@H](CCSC)NC(=O)c1sc(SC(C)C)c(C#N)c1-c1ccc(Cl)cc1`: the IC50 amounted to 5700 nM.

The next experiment relates to Saccharomyces cerevisiae. The experiment is described as §1.
Settings: not given
In the case of `CCOC(=O)c1c(-c2ccc(Cl)cc2)c(C#N)c(SC(C)C)n1C`, the result was inactive.

Take `CCOC(=O)c1oc(SC(C)C)c(C#N)c1-c1ccc(Cl)cc1`: the outcome was inactive. Same read-out and setting: then `CCOC(=O)c1sc(SC(C)C)nc1-c1ccc(Cl)cc1`, with “inactive”.

Target in a further experiment: not listed separately
The experiment can be described thus: Inhibition of yeast recombinant FTase by Lineweaver-Burke plot. Also on record: species or system Saccharomyces cerevisiae.
Settings: not given
For `CC(C)Sc1sc(C(=O)O)c(-c2ccc(Cl)cc2)c1C#N`, the Ki is 105 nM.

Target in a further experiment: not listed separately
The experiment can be described thus: Inhibition of yeast recombinant FTase by non-competitive Lineweaver-Burke plot using farnesyl pyrophosphate substrate.
Settings: not given
Also noted: species or system Saccharomyces cerevisiae.
For the compound `CC(C)Sc1sc(C(=O)O)c(-c2ccc(Cl)cc2)c1C#N`, the Ki came out at 110 nM.

These data come from ChEMBL document CHEMBL1155240, “Discovery of a new class of protein farnesyltransferase inhibitors in the arylthiophene series” (J Med Chem, 2009).
